Laboratory results as given in patent US6677310B1, “Ring-expanded nucleosides and nucleotides” (Nabi, priority 1999, dated 2004).
Converted amounts (≈) assume the structure as drawn. “Also recorded” adds a separate entry of the source.

Columns and labels:
P3HR-1 strain of EBV = experiment: Viral capsid antigen (VCA) / EBV immunofluorescence assay in Daudi cells; assay type: cell-based, Epstein-Barr virus; settings: for SI (Selectivity Index), Daudi Cells: IC50 (Daudi cells) divided by anti-EBV EC50; for SI (Selectivity Index), Neutral Red Uptake: IC50 (neutral red, stationary HFF) divided by anti-EBV EC50; for SI (Selectivity Index), HFF Cells: IC50 (rapidly growing HFF) divided by anti-EBV EC50; for EC50: human gammaherpesvirus 4, Daudi cells, read-out: Antiviral Activity (EC50), anti-EBV
Experimental: After virus adsorption, the cells were washed and pelleted, and the supernatant was discarded. The drugs to be tested were serially diluted in RPMI-1640 and added to the appropriate tubes. The cultures were incubated for 2 days in complete medium to allow viral gene expression. Following the 48 h incubation period, a number of cells of each sample were counted and washed in phosphate-buffered saline (PBS), and slides were prepared. The slides were dried overnight. The dried cells were fixed with acetone. A monoclonal antibody to viral capsid antigen (VCA) was then added to the cells, incubated for 30 min at 37° C., and washed in PBS. This was followed by a fluorescein-conjugated goat anti-mouse IgG antibody. The cells were counterstained with. Evans Blue. A total of 500 negative and fluorescence positive cells were counted. The total number of VCA positive cells in the cultures was calculated and EC50 values determined using Microsoft Excel Software.
(§1) Data Analysis: Dose-response relationships were constructed by linearly regressing the percent inhibition of parameters derived in the preceding sections against log drug concentrations. Fifty-percent inhibitory (IC50) concentrations were calculated from the regression lines.

[1] = Cell proliferation assay, rapidly growing HFF cells; assay type: cell-based; settings: human, rapidly growing human foreskin fibroblast (HFF) cells; for IC50 at 72 h: rapidly growing HFF cells, read-out: Cytotoxicity (IC50), HFF Cells
Experimental: (§2) The toxicity of Compounds 14-1 and 14-2 was also measured in rapidly growing human foreskin fibroblast (HFF) cells and Daudi cells by cell proliferation assay (National Institute of Allergy and Infectious Diseases (NIAID), NIH, Bethesda, Md.). According to the assay method, the appropriate cells were seeded in six-well plates in MEM containing 10% FBS. Twenty four hours later, the cells were treated with several dilutions of the test compounds covering a range of 0.03-100 μg/ml. The plates were incubated in a CO2 incubator at 37° C. for 72h. The cells were washed after removing the media and subsequently released from the plate wells by the addition of 1 ml of 0.25% trypsin. The contents in the wells were mixed, diluted with Isotone III and counted using a Coulter counter. The CC50 values (concentration of compound giving 50% inhibition of cell proliferation) were calculated by linear regression analysis. Toxicity of Compound 14-1 was also evaluated in bone marrow precursor cells by previously published procedure (Sommadossi, J.-P., et al., Biochem. Pharmacol., 44:1921-1925, 1992).
(§3) (A) Cell Proliferation Assay: Twenty-four hours prior to assay, cells (HFF or Daudi) were seeded in six-well plates at a concentration of 2.5×10^4 cells per well in MEM containing 10% FBS. On the day of the assay, drugs were diluted serially in MEM containing 10% FBS at increments of 1:5 covering a range from […]. For drugs that had to be solubilized in DMSO, control wells receive MEM containing 10% DMSO. The media from the wells was then aspirated, and 2 mL of each drug concentration was added to each well. The cells were incubated in a CO2 incubator at 37° C. for 72 h. At the end of this time, the media-drug solution was removed, and the cells were washed. Trypsin-EDTA (0.25%, 1 mL) was added to each well and incubated until the cells started to come off the plate. The cell-media mixture was then pipeted up and down vigorously to break up the cell suspension and 0.2 mL of the mixture added to 9.8 mL of Isoton III and the cells were counted using a Coulter Counter. Each sample was counted three times with two replicate wells per sample. The IC50 values were calculated using a computer program.

[2] = Neutral red uptake assay, stationary HFF cells; assay type: cell-based; settings: human, read-out: Cytotoxicity (IC50), Neutral Red Uptake
Experimental: (B) Neutral Red Uptake Assay: Twenty-four hours prior to assay, HFF cells were plated into 96-well plates at a concentration of 2.5×10^4 cells/well. After 24 h, the media was aspirated, and […] of media containing drug was added to the first row of wells and then diluted serially 1:5 using the automated Cetus Liquid Handling System. The plates were then incubated in a Co2 incubator at 37° C. for 7 days. At this time the media/drug was removed, cells were washed, 200 μL/well of 0.01% neutral red in PBS was added, and the mixture was incubated for 1 h. The dye was removed, and the cells were washed using a Nunc Plate Washer. After the wash was removed, […] of 50% ethanol/1% aqueous acetic acid was added. The plates were placed on a rotating shaker for 15 min, and the optical densities were then read at 540 nm using a plate reader.
as §1

[3] = Cell proliferation assay, rapidly growing Daudi cells; assay type: cell-based; settings: human; for IC50 at 72 h: rapidly growing Daudi cells, read-out: Cytotoxicity (IC50), Daudi Cells
Experimental: as §2, §3

[4] = target: T1, adenosine deaminase from calf intestinal mucosa (Bos taurus, UniProt P56658); experiment: Adenosine deaminase assay (Example 17); assay type: biochemical; settings: Lineweaver-Burk plots; with and without preincubation
T1 construct: against adenosine deaminase from calf intestinal mucosa; from tissue; host or cells: calf intestinal mucosa
T1 sequence (P56658 whole entry): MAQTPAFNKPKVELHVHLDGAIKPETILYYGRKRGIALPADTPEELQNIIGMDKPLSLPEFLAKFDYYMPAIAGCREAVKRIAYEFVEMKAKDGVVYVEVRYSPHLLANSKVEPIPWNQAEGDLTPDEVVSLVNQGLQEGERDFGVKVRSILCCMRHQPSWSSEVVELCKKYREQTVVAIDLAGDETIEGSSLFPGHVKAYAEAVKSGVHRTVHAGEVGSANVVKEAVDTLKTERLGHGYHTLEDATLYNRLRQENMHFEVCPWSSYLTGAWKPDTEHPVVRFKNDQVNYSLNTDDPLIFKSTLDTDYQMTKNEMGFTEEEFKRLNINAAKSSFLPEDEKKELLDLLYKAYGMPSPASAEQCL
Experimental: Inhibition of adenosine deaminase (ADA) by Compound 17-1 and Compound 17-2 (see FIG. 13 for chemical structures; note that structure 1 FIG. 13 is the same as that in figure except that it is written in an anti-conformation in the former) was investigated in vitro against adenosine deaminase from calf intestinal mucosa in a 50 mM phosphate buffer (pH=7.4) at 25° C., by spectro-photometrically monitoring the rate of hydrolysis of substrate adenosine at 265 nm. Stock solutions of the substrate, enzyme, and inhibitors were prepared using a 50 mM phosphate buffer (pH 7.4). The enzyme kinetics was followed by measuring the change in optical density (decrease in absorbance) per minute of the substrate adenosine. By keeping the concentration of the inhibitor constant, and by varying the substrate concentration, a set of kinetic data was obtained. Additional sets of data were generated using different concentrations of the inhibitor. […]
(a) pre-incubation of the enzyme with the inhibitor; here the enzyme (ADA 10 μL) and inhibitor were preincubated for 10 min in a calculated amount of phosphate buffer (50 mM, pH 7.5 ) at 25° C. and the reaction was initiated by the addition of substrate, adenosine, and (b) without preincubation; here the reaction was started by addition of ADA (10 μL) to a mixture of adenosine and inhibitor in the phosphate buffer at 25° C. […]

[5] = target: T2, guanine deaminase (guanase) from rabbit liver (Oryctolagus cuniculus, UniProt G1T386); experiment: Guanine deaminase assay (Example 17); assay type: biochemical; settings: Lineweaver-Burk plots
T2 construct: from tissue; host or cells: rabbit liver
T2 sequence (G1T386 1-454): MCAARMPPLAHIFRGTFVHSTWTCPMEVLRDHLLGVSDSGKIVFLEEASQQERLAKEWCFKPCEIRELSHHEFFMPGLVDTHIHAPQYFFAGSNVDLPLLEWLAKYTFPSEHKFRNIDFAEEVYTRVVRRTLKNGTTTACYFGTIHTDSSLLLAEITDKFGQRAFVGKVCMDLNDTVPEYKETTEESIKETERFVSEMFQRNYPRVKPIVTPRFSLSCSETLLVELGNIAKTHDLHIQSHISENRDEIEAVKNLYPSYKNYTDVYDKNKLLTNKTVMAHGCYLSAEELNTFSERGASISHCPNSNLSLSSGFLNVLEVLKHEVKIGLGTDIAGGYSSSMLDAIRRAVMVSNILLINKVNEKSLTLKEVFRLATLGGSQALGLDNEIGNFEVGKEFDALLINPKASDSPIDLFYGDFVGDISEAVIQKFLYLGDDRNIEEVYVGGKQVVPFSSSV
Experimental: Stock solutions of the substrate, enzyme, and inhibitors were prepared using a 50 mM Tris-HCl buffer (pH 7.4). The enzyme kinetics was followed by measuring the change in optical density (decrease in absorbance) per minute of the substrate guanine. By keeping the concentration of the inhibitor constant, and by varying the substrate concentration, a set of kinetic data was obtained. Additional sets of data were generated using different concentrations of the inhibitor. The substrate concentration in each assay ranged 6-20 μM; a total of six different concentrations were employed. The inhibitor concentration used in each assay was 30 or 40 μM. The amount of enzyme used in each assay was 0.0076 unit. The Ki for inhibition assays was computed from Lineweaver-Burk plots. The Lineweaver-Burk plot (1/V vs 1/[S]), as well as the linear regression analysis of kinetic data, were performed using the program Quattro Pro (version 6.01) for Windows.™.

EC50 (P3HR-1 strain of EBV) [µg/mL] | melting point [°C] | inhibition of guanine deaminase (guanase), mode [5] | Compound | SI (Selectivity Index), Daudi Cells (P3HR-1 strain of EBV) | SI (Selectivity Index), Neutral Red Uptake (P3HR-1 strain of EBV) | SI (Selectivity Index), HFF Cells (P3HR-1 strain of EBV) | IC50 at 72 h [1] [µg/mL] | IC50 at 7 days [2] [µg/mL] | IC50 at 72 h [3] [µg/mL] | CC50 at 72 h ([1]; Rapidly growing HFF cells) [µg/mL] | CC50 at 72 h ([3]; Rapidly growing Daudi cells) [µg/mL] | mode of inhibition of adenosine deaminase [4]
8.3 (≈ 19.5 µM) | 239 to 241 |  | O=C1NCC(=O)N(Cc2ccccc2)c2c1nc(Br)n2Cc1ccccc1 [Compound 18-2, 3,4-Dibenzyl-2-bromo-4,5,7,8-tetrahydro-6H-imidazo[4,5-e][1,4]diazepine-5,8-dione] | >6 | >12 | >12 | > 100 | > 100 | > 50 |  |  | 
0.8 (≈ 3.55 µM) |  |  | Nc1nc2c(ncn2COCCO)c(=O)[nH]1 [Aciclovir, reference compound] | >62 | >125 | >125 | > 100 | > 100 | > 50 | > 100 | > 50 | 
 |  | competitive inhibitor | N=c1nc(N)c2ncn(COCCO)c2c(N)n1 [Compound 17-2] |  |  |  |  |  |  |  |  | competitive inhibitor; also recorded: reversible inhibitor
4.1 (≈ 9.39 µM) | 170 to 172 |  | O=C1c2ncn(Cc3ccccc3)c2N(Cc2ccccc2)C(=O)CN1Cc1ccccc1 [Compound 18-1, 3,4,7-Tribenzyl-4,5,7,8-tetrahydro-6H-imidazo[4,5-e][1,4]diazepine-5,8-dione] | >12 | >24 | >24 | > 100 | > 100 | > 50 |  |  | 
